What was measured:
[1] = molecular target: T1, PDE4B1 (Homo sapiens, UniProt Q07343); assay: Inhibition of type 4 phosphodiesterase (PDE4) activity, modified SPA test with recombinant PDE4B1 expressed in SF21 insect cells; format: biochemical; details: recombinant PDE4B1, 0.5 μM cAMP, read-out: PDE4B1 inhibitory values [measured as −log IC50 (mol/l)] (converted)
T1 construct: made in house; host or cells: SF21 insect cells (baculovirus; pCRBac vector), 1000 x g supernatant of homogenate
Procedure: Method for Measuring Inhibition of the Type 4 Phosphodiesterase (PDE4) Activity:
The PDE4B1 (GB no. L20966) was a gift of Prof. M. Conti (Stanford University, USA). It was amplified from the original plasmid (pCMV5) via PCR with primers Rb18 (5′-[…]-3′) and Rb10 (5′-[…]-3′) and cloned into the pCRBac vector (Invitrogen, Groningen, NL).
The recombinant baculovirus was prepared by means of homologous recombination in SF9 insect cells. The expression plasmids were cotransfected with Baculo-Gold DNA (Pharmingen, Hamburg) using a standard protocol (Pharmingen, Hamburg). Wt virus-free recombinant virus supernatants were selected using plaque assay methods. After that, high-titre virus supernatants were prepared by amplifying 3 times. PDE4B1 was expressed in SF21 cells by infecting 2×10^6 cells/ml with an MOI (multiplicity of infection) between 1 and 10 in the serum-free medium Insect Express Sf9-S2 (PAA, Pasching, Austria). The cells were cultured at 28° C. for 48-72 hours, after which they were pelleted for 5-10 min at 1000×g and 4° C.
The SF21 insect cells were resuspended, at a concentration of approx. 10^7 cells/ml, in ice-cold (4° C.) homogenization buffer (20 mM Tris, pH 8.2, containing the following additions: 140 mM NaCl, 3.8 mM KCl, 1 mM EGTA, 1 mM MgCl2, 10 mM (3-mercaptoethanol, 2 mM benzamidine, 0.4 mM Pefablock, 10 μM leupeptin, 10 μM pepstatin A, 5 μM trypsin inhibitor) and disrupted by ultrasonication. The homogenate was then centrifuged for 10 min at 1000×g and the supernatant was stored at −80° C. until subsequent use (see below). The protein content was determined by the Bradford method (BioRad, Munich) using BSA as the standard.
PDE4B1 activity was inhibited by the compounds according to the present subject matter in a modified SPA (scintillation proximity assay) test, supplied by Amersham Biosciences (see procedural instructions “phosphodiesterase [3H]cAMP SPA enzyme assay, code TRKQ 7090”), carried out in 96-well microtitre plates (MTP's). The test volume is 100 μl and contains 20 mM Tris buffer (pH 7.4), 0.1 mg/ml of BSA, 5 mM Mg^2+, 0.5 μM cAMP (including about 50,000 cpm of [3H]cAMP), 1 μl of the respective substance dilution in DMSO and sufficient recombinant PDE (1000×g supernatant, see above) to ensure that 10-20% of the cAMP is converted under the said experimental conditions. […] After a preincubation of 5 min at 37° C., the reaction is started by adding the substrate (cAMP) and the assays are incubated for a further 15 min; after that, they are stopped by adding SPA beads (50 μl). In accordance with the manufacturer's instructions, the SPA beads had previously been resuspended in water, but were then diluted 1:3 (v/v) in water; the diluted solution also contains 3 mM IBMX to ensure a complete PDE activity stop. After the beads have been sedimented (>30 min), the MTP's are analyzed in commercially available luminescence detection devices. The corresponding IC50 values of the compounds for the inhibition of PDE4B1 activity are determined from the concentration-effect curves by means of non-linear regression.

[2] = molecular target: T2, PDE5A1 (Homo sapiens, UniProt O76074); assay: Inhibition of type 5 phosphodiesterase (PDE5) activity, modified SPA test with human platelet lysate; format: biochemical; details: 0.5 μM cGMP, read-out: PDE5A1 inhibitory values [measured as −log IC50 (mol/l)] (converted)
T2 construct: from tissue; host or cells: human platelets from fresh donor blood (10,000 x g supernatant of sonicated lysate)
Procedure, shortened: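 Enzyme source is lysate from human platelets (10,000 g supernatant). Compound preincubated 5 min at 37° C in Tris pH 7.4 containing 1 μM motapizone and 10 nM of a PDE2 inhibitor. Reaction started with 0.5 μM cGMP ([3H] tracer) and run 15 min; SPA read-out, IC50 by non-linear regression.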

T1 sequence (Q07343 whole entry): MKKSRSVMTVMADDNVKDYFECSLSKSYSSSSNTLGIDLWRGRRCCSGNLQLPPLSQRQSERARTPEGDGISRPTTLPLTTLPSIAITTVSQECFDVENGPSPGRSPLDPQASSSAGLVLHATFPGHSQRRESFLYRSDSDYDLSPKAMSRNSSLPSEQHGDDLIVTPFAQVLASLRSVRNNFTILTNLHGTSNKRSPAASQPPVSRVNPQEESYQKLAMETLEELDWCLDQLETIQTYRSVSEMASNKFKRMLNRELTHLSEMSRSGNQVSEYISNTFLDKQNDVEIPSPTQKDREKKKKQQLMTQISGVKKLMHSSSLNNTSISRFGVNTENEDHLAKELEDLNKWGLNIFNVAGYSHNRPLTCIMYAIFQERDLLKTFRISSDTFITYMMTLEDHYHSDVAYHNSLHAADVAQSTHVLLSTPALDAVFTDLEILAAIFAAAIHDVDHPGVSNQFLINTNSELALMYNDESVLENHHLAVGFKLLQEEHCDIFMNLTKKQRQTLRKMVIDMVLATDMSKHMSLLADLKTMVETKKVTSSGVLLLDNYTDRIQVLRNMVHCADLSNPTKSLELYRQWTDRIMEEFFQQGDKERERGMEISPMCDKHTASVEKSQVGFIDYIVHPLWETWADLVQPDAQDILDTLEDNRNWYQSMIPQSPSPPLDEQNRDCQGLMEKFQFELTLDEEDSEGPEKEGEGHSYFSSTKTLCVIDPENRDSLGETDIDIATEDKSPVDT

| Compound | IC50 [1] | IC50 [2] |
| --- | --- | --- |
| CC(=O)N[C@H]1CC[C@H](NC(=O)c2c(C)[nH]c3c(-c4cc(F)ccc4OCC4CC4)ncnc23)CC1 [Example E41, N-(trans-4-acetamidocyclohexyl)-4-[2-(cyclopropylmethoxy)-5-fluorophenyl]-6-methyl-5H-pyrrolo[3,2-d]pyrimidine-7-carboxamide] | < 100 nM | < 1 nM |
| Cc1[nH]c2c(-c3cc(C(F)(F)F)ccc3OCC3CC3)ncnc2c1C(=O)NC1CCN(C(=O)[C@H](C)O)CC1 [Example F58, 4-[2-(Cyclopropylmethoxy)-5-(trifluoromethyl)phenyl]-N-{1-[(2S)-2-hydroxypropanoyl]piperidin-4-yl}-6-methyl-5H-pyrrolo[3,2-d]pyrimidine-7-carboxamide] | 100 to 1000 nM | < 1 nM |
| CCOC(=O)N1CCC(NC(=O)c2c(C)[nH]c3c(-c4cc(F)ccc4OCC4CC4)ncnc23)CC1 [Example E40, Ethyl 4-[({4-[2-(cyclopropylmethoxy)-5-fluorophenyl]-6-methyl-5H-pyrrolo[3,2-d]pyrimidin-7-yl}carbonyl)amino]piperidine-1-carboxylate] | 100 to 1000 nM | < 1 nM |
| Cc1[nH]c2c(-c3cc(C(C)C)ccc3OCC3CC3)ncnc2c1C(=O)N[C@H]1CC[C@@H](NC(=O)[C@H](C)O)CC1 [Example F101, 4-[2-(Cyclopropylmethoxy)-5-(propan-2-yl)phenyl]-N-(cis-4-{[(2S)-2-hydroxypropanoyl]amino}cyclohexyl)-6-methyl-5H-pyrrolo[3,2-d]pyrimidine-7-carboxamide] | 100 to 1000 nM | < 1 nM |
| Cc1[nH]c2c(-c3cc(F)ccc3OCC3CC3)ncnc2c1C(=O)NC1CCN(C(=O)[C@H](C)O)CC1 [Example F24, 4-(2-Cyclopropylmethoxy-5-fluoro-phenyl)-6-methyl-5H-pyrrolo[3,2-d]pyrimidine-7-carboxylic acid [1-((S)-2-hydroxy-propionyl)-piperidin-4-yl]-amide] | 100 to 1000 nM | < 1 nM |
| CCc1ccc(OCC2CC2)c(-c2ncnc3c(C(=O)N[C@H]4CC[C@H](NC(=O)COC)CC4)c(C)[nH]c23)c1 [Example E150, 4-[2-(Cyclopropylmethoxy)-5-ethylphenyl]-N-{trans-4-[(methoxyacetyl)amino]cyclohexyl}-6-methyl-5H-pyrrolo[3,2-d]pyrimidine-7-carboxamide] | < 100 nM | < 1 nM |
| COc1ccc(OCC2CC2)c(-c2ncnc3c(C(=O)N[C@H]4CC[C@@H](NC(=O)CO)CC4)c(C)[nH]c23)c1 [Example F45, 4-[2-(Cyclopropylmethoxy)-5-methoxyphenyl]-N-[cis-4-(glycoloylamino)cyclohexyl]-6-methyl-5H-pyrrolo[3,2-d]pyrimidine-7-carboxamide] | 100 to 1000 nM | < 1 nM |

Results, then the molecule that gave them:

| IC50 [1] | IC50 [2] | Compound |
| --- | --- | --- |
| < 100 nM | – | COCC(=O)N[C@H]1C[C@@H](F)[C@H](NC(=O)c2c(C)[nH]c3c(-c4cc(C(F)F)ccc4OCC4CC4)ncnc23)C1 (relative stereo) [Example P101, 4-[2-(Cyclopropylmethoxy)-5-(difluoromethyl)phenyl]-N-{(1R*,2R*,4R*)-2-fluoro-4-[(methoxyacetyl)amino]cyclopentyl}-6-methyl-5H-pyrrolo[3,2-d]pyrimidine-7-carboxamide] |
| < 100 nM | – | CC(=O)N[C@H]1C[C@@H](F)[C@H](NC(=O)c2c(C)[nH]c3c(-c4cc(C(F)F)ccc4OCC4CC4)ncnc23)C1 (relative stereo) [Example P99, N-[(1R*,2R*,4R*)-4-(Acetylamino)-2-fluorocyclopentyl]-4-[2-(cyclopropylmethoxy)-5-(difluoromethyl)phenyl]-6-methyl-5H-pyrrolo[3,2-d]pyrimidine-7-carboxamide] |
| < 100 nM | – | CCC(=O)N[C@H]1C[C@@H](F)[C@H](NC(=O)c2c(C)[nH]c3c(-c4cc(C(F)F)ccc4OCC4CC4)ncnc23)C1 (relative stereo) [Example P100, 4-[2-(Cyclopropylmethoxy)-5-(difluoromethyl)phenyl]-N-[(1R*,2R*,4R*)-2-fluoro-4-(propanoylamino)cyclopentyl]-6-methyl-5H-pyrrolo[3,2-d]pyrimidine-7-carboxamide] |
